US20150018299A1, “TREATMENT OF LIVER CONDITIONS” (CAN-FITE BIOPHARMA LTD., priority 2012, published 2015)
Several values for one entry are separate records, joined by “and”; a condition that tells them apart may be missing. Equal entries are not always repeated.

Tests used:
[1] = system: patients with advanced hepatocellular carcinoma (HCC); test: Phase 1-2 dose-escalation study of oral CF102: overall survival and clinical activity; format: in vivo, human; conditions: for Survival from start of CF102: individual subjects
Text: All patients were over the age of 18 with incurable advanced, refractory, or metastatic hepatocellular carcinoma (HCC), documented by cytology and/or histology for patients without underlying cirrhosis or according to the American Association for the Study of Liver Diseases Practice Guideline algorithm for patients with underlying cirrhosis. All patients had measurable disease, according to Response Evaluation Criteria in Solid Tumors (RECIST); […] The trial employed a conventional “three plus three” design. […] At the first stage nine patients were enrolled for the dose escalation phase and then additional nine were enrolled for the dose confirmation phase. Furthermore, nine patients have undergone intra-subject dose escalation per protocol. Subjects returned for a follow-up visit 28 days after completion of the last dose of study drug. […] Safety data analysis was conducted on all subjects who received at least one dose of CF102. The number and percentage of subjects who experienced one or more AEs were summarized by dose level group, relationship to study drug, and severity. AEs were coded using Medical Dictionary for Regulatory Activities (MedDRA) terminology. Clinical laboratory parameters were summarized using descriptive statistics, by post-dosing shifts relative to baseline, and data listings of clinically significant abnormalities. Vital signs and ECG data were summarized by changes from baseline values at each dose level using descriptive statistics. Pharmacokinetic parameters, including AUC (0-8 h), Cmax, Cmin, and Tmax was estimated. Comparisons across dose levels were made to assess proportionality. Overall survival was calculated using the Kaplan-Meier method.

[2] = human, in vivo
Text: The number and percentage of subjects who experienced one or more AEs were summarized by dose level group, relationship to study drug, and severity. AEs were coded using Medical Dictionary for Regulatory Activities (MedDRA) terminology. Clinical laboratory parameters were summarized using descriptive statistics, by post-dosing shifts relative to baseline, and data listings of clinically significant abnormalities. Vital signs and ECG data were summarized by changes from baseline values at each dose level using descriptive statistics. Pharmacokinetic parameters, including AUC (0-8 h), Cmax, Cmin, and Tmax was estimated. Comparisons across dose levels were made to assess proportionality. Overall survival was calculated using the Kaplan-Meier method.

[3] = system: patients with hepatocellular carcinoma (HCC); test: Phase 1-2 study of oral CF102: liver function parameters over 6 months; format: in vivo, human; conditions: serum, over a 6 months period
Text: The trial employed a conventional “three plus three” design. […] At the first stage nine patients were enrolled for the dose escalation phase and then additional nine were enrolled for the dose confirmation phase. Furthermore, nine patients have undergone intra-subject dose escalation per protocol. Subjects returned for a follow-up visit 28 days after completion of the last dose of study drug.

CNC(=O)[C@H]1O[C@@H](n2cnc3c(NCc4cccc(I)c4)nc(Cl)nc32)[C@H](O)[C@@H]1O [CF102, 2-Chloro-N^6-(3-iodobenzyl)-adenosine-5′-N-methyluronamide]
Overall survival, range ([1]; 12 sorafenib failures): 3.5-13.2 months | Median overall survival (OS) ([1]; 12 sorafenib failures, CF102 as second line therapy): 7 months and 7.0 months | Median overall survival (OS) ([1]; all 18 subjects): 7.82 months and 7.8 months | Overall survival, range ([1]; all 18 subjects): 3.5-27.3 months | Median overall survival (OS) ([1]; five Child-Pugh B patients): 8.1 months | Overall survival, range ([1]; five Child-Pugh B patients): 7.0-13.2 months | Survival from start of CF102 ([1]; starting dose 1 mg BID oral): 7.1 months and 5.6 months and 13.2** months and 7.0 months and 8.2 months and 27.3* months | Survival from start of CF102 ([1]; starting dose 5 mg BID oral): 4.1 months and 7.1 months and 10.6 months and 10.7 months and 3.5 months and 4.2 months | Survival from start of CF102 ([1]; starting dose 25 mg BID oral): 8.3 months and 8.1 months and 7.6 months and 7.0 months and 12.6 months and 8.4 months | Period of Stable Disease (SD) by RECIST criteria ([1]; one subject): 10 months | Time receiving CF102 ([1]; one subject, continuing on drug): ≥ 41 months | Plasma levels [2]: > 0.66 nM | Liver function parameters: ALT, AST, albumin, bilirubin, prothrombin time, ALK phosphatase, α-fetoprotein [3]: remained stable
